In ChEMBL document CHEMBL1926604, “Design and synthesis of pyridin-2-ylmethylaminopiperidin-1-ylbutyl amide CCR5 antagonists that are potent inhibitors of M-tropic (R5) HIV-1 replication” (Bioorg Med Chem Lett, 2011):
Active and inactive are the calls of the source. The rule behind the calls is not given here.

Experiments:
[1] = tested on: Human immunodeficiency virus 1; assay: Antiviral activity against R5 tropic Human immunodeficiency virus 1 BAL infected in human PBMC cells assessed as reduction in viral replication by p24 detection based ELISA; format: functional, organism-based
[2] = Cytotoxic activity against human PBMC assessed as reduction in cell viability; format: cell-based
[3] = (§1) Plasma protein binding in human plasma at 1 uM after 5 hrs by LC-MS/MS analysis; format: ADME, cell-free; conditions: read-out: PPB (converted)
[4] = Cmax in rat; format: ADME, organism-based; conditions: in vivo
[5] = Cmax in dog; format: ADME, organism-based, Canis lupus familiaris; conditions: in vivo
[6] = AUC (0 to infinity) in rat; format: ADME, organism-based; set-up: time infinity; concentration or dose not given beside the values; conditions: plasma
[7] = AUC (0 to infinity) in dog; format: ADME, organism-based, Canis lupus familiaris; set-up: time infinity; concentration or dose not given beside the values; conditions: plasma
[8] = Clearance in dog at 5 umol/kg, iv; format: ADME, organism-based, Canis lupus familiaris; conditions: in vivo
Rattus norvegicus [9] = assay: (§2) Volume of distribution at steady state in rat at 10 umol/kg, iv; format: ADME, organism-based; conditions: in vivo
[10] = Volume of distribution at steady state in dog at 5 umol/kg, iv; format: ADME, organism-based, Canis lupus familiaris; conditions: in vivo, read-out: Vdss
Rattus norvegicus [11] = assay: (§3) Half life in rat at 10 umol/kg, iv; format: ADME, organism-based; conditions: in vivo
[12] = Half life in dog at 5 umol/kg, iv; format: ADME, organism-based, Canis lupus familiaris; conditions: in vivo
[13] = Oral bioavailability in rat; format: ADME, organism-based; conditions: in vivo
[14] = Oral bioavailability in dog; format: ADME, organism-based, Canis lupus familiaris; conditions: in vivo
Plasma = assay: as §1; format: ADME, cell-free; conditions: 5 h, 1 µM
[15] = Clearance in rat at 10 umol/kg, iv; format: ADME, organism-based; conditions: in vivo
[16] = as §2; format: ADME, organism-based; conditions: in vivo, 10 umol/kg, read-out: Vdss
[17] = as §3; format: ADME, organism-based; conditions: in vivo, 10 umol/kg
[18] = molecular target: T1, Muscarinic acetylcholine receptor M2 (Homo sapiens) (UniProt P08172); assay: Inhibition of muscarinic M2 receptor
T1 sequence (whole entry): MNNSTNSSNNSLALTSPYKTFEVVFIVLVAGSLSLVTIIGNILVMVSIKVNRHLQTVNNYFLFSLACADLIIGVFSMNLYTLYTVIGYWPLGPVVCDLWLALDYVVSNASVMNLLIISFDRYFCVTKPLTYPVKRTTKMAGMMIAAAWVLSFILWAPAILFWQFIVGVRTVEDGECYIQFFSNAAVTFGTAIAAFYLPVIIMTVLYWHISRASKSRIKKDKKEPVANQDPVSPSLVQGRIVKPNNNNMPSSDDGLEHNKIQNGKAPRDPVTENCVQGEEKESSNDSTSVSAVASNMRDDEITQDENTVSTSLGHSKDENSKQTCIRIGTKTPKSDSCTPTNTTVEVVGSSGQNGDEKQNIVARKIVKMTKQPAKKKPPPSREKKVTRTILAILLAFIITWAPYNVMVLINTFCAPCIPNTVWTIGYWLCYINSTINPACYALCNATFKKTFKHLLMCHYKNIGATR

Cytochrome P450 3A4 = Cytochrome P450 3A4 (Homo sapiens, UniProt P08684); assay: Inhibition of CYP3A4; format: ADME
Cytochrome P450 1A2 = molecular target: T2, Cytochrome P450 1A2 (Homo sapiens, UniProt P05177); assay: Inhibition of CYP1A2; format: ADME
T2 sequence (P05177 whole entry): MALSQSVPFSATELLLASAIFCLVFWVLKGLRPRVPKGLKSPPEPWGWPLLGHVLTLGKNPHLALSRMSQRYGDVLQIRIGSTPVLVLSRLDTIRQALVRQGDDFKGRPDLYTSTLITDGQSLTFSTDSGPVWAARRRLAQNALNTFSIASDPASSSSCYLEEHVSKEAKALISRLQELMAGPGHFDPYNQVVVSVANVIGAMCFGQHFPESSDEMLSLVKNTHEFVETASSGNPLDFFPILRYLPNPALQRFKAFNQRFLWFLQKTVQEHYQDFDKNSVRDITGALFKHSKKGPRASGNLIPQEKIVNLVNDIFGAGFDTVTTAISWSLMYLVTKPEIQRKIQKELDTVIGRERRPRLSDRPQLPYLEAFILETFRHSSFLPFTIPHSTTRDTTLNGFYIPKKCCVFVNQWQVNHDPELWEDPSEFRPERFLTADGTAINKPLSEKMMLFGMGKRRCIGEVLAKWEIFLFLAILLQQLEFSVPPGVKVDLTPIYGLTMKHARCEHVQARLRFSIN

Cytochrome P450 2C9 = Cytochrome P450 2C9 (Homo sapiens, UniProt P11712); assay: Inhibition of CYP2C9; format: ADME
Cytochrome P450 2C19 = Cytochrome P450 2C19 (Homo sapiens, UniProt P33261); assay: Inhibition of CYP2C19; format: ADME
Cytochrome P450 2D6 = Cytochrome P450 2D6 (Homo sapiens, UniProt P10635); assay: Inhibition of CYP2D6; format: ADME
[19] = molecular target: Voltage-gated inwardly rectifying potassium channel KCNH2 (Homo sapiens, UniProt Q12809); assay: Inhibition of human ERG
[20] = molecular target: T3, C-C chemokine receptor type 1 (Homo sapiens) (UniProt P32246); assay: Inhibition of CCR1 by Ca(2+) flux assay
T3 sequence (whole entry): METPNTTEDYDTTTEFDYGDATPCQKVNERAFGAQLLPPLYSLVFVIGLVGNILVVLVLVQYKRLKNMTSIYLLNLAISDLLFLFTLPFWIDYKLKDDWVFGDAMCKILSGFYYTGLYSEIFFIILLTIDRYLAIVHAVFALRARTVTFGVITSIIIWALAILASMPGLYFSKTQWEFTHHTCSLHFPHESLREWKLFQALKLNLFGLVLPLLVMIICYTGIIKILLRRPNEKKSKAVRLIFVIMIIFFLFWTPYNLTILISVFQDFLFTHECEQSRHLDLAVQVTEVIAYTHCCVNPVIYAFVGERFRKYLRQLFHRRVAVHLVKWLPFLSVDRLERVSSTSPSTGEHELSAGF

[21] = molecular target: C-C chemokine receptor type 2 (Homo sapiens) (UniProt P41597); assay: Inhibition of CCR2B by Ca(2+) flux assay
[22] = molecular target: T4, C-C chemokine receptor type 4 (Homo sapiens) (UniProt P51679); assay: Inhibition of CCR4 by Ca(2+) flux assay
T4 sequence (whole entry): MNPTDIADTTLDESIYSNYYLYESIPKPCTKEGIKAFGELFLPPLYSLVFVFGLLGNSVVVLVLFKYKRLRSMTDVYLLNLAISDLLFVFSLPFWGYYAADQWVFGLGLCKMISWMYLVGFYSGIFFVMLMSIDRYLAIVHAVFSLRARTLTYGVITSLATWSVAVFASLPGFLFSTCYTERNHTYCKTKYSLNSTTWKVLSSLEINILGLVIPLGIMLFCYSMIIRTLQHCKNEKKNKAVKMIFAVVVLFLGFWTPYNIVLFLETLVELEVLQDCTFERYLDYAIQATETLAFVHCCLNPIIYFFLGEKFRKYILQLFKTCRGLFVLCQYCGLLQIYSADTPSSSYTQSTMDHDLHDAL

[23] = molecular target: T5, C-X-C chemokine receptor type 1 (Homo sapiens) (UniProt P25024); assay: Inhibition of CXCR1 by Ca(2+) flux assay
T5 sequence (whole entry): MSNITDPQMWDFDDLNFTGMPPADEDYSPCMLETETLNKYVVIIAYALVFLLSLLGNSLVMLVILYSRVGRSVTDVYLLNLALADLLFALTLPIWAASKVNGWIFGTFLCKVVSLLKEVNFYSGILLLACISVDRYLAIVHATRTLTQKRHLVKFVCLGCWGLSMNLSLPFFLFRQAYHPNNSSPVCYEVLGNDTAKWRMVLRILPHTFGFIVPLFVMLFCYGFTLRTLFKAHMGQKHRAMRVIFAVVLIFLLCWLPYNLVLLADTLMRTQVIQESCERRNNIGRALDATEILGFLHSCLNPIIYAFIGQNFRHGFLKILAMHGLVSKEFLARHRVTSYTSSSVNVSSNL

[24] = molecular target: T6, C-X-C chemokine receptor type 2 (Homo sapiens) (UniProt P25025); assay: Inhibition of CXCR2 by Ca(2+) flux assay
T6 sequence (whole entry): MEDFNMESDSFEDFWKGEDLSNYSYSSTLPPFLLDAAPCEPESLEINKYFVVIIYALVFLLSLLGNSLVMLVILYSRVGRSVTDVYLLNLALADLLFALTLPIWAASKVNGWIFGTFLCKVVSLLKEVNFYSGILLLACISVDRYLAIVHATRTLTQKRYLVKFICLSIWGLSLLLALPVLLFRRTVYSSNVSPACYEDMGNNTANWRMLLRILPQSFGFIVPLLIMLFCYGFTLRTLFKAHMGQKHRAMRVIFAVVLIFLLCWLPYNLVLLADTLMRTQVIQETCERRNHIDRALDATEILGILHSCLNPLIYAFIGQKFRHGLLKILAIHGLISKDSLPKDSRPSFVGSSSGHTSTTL

[25] = molecular target: C-X-C chemokine receptor type 4 (Homo sapiens) (UniProt P61073); assay: Inhibition of CXCR4 by Ca(2+) flux assay
C-X-C chemokine receptor type 4 (Homo sapiens), sequence (P61073 whole entry): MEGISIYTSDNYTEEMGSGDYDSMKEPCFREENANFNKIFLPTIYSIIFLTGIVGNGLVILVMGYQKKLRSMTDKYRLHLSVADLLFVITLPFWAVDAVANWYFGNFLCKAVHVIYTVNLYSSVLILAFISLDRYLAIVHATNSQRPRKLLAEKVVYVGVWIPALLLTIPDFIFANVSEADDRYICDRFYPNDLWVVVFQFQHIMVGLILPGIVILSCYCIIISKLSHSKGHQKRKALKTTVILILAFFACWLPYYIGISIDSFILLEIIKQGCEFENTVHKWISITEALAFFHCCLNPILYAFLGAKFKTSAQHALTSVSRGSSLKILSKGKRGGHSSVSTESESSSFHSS

Cytochrome P450 2D6, sequence (P10635 whole entry): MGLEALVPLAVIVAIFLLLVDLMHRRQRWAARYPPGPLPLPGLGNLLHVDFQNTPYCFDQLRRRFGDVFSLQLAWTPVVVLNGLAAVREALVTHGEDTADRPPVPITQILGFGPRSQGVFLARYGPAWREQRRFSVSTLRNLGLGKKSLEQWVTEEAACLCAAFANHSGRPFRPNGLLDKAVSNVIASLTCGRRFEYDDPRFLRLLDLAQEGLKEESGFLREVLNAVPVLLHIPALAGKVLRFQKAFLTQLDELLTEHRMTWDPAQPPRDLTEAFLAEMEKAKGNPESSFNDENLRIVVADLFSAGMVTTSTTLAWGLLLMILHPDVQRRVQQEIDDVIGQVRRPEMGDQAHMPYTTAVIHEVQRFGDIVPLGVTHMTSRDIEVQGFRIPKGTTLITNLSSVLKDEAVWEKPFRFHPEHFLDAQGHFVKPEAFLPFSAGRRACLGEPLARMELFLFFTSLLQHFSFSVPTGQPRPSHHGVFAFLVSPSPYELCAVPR
Cytochrome P450 2C9, sequence (P11712 whole entry): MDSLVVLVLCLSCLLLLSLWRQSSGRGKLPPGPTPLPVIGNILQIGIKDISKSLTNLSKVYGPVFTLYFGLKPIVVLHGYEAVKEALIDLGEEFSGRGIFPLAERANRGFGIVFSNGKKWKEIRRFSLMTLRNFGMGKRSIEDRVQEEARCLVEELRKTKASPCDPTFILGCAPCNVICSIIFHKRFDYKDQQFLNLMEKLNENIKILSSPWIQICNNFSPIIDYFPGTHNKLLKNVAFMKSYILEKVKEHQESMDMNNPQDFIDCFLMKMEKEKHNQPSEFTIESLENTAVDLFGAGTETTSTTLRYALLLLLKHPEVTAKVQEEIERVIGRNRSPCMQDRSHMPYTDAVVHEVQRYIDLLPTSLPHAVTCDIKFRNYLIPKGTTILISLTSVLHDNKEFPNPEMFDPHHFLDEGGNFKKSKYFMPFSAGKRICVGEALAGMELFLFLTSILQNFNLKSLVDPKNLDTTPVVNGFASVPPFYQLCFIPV
Cytochrome P450 2C19, sequence (P33261 whole entry): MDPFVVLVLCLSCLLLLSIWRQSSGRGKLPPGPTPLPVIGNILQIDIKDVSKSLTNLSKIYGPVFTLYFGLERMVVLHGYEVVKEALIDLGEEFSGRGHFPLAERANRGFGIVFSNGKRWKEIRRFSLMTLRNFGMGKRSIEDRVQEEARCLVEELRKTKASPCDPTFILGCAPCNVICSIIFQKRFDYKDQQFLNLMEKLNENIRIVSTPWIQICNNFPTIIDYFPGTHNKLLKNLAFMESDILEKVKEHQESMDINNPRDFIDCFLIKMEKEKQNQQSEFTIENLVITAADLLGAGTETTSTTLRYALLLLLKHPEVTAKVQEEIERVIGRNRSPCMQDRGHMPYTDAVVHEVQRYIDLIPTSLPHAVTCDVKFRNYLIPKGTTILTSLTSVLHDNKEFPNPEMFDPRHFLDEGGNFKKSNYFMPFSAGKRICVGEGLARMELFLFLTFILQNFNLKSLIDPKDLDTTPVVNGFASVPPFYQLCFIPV
Cytochrome P450 3A4, sequence (P08684 whole entry): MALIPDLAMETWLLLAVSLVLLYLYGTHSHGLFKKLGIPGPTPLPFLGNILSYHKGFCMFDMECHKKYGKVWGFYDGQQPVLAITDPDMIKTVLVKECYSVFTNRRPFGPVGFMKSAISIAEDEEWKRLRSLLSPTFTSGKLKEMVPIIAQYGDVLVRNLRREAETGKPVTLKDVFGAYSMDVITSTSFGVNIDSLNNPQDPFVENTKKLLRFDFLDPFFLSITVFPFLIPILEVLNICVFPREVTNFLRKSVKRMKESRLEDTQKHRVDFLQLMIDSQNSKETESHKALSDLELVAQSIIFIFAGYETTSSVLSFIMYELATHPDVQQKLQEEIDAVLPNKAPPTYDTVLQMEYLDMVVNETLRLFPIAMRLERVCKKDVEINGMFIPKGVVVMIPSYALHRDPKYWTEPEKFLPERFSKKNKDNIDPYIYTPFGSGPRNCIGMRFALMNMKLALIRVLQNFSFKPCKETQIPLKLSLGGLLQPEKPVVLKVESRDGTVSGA
C-C chemokine receptor type 2 (Homo sapiens), sequence (P41597 whole entry, looked up): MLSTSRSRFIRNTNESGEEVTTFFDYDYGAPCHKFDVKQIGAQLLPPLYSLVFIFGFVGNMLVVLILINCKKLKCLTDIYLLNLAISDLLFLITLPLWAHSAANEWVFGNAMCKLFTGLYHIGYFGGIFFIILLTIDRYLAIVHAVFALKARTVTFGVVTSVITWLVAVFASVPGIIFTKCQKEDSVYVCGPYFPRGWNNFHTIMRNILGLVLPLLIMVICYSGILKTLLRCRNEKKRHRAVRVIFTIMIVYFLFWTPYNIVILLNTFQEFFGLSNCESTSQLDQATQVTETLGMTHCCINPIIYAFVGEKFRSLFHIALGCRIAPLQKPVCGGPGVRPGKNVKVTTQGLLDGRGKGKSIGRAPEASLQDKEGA
Voltage-gated inwardly rectifying potassium channel KCNH2, sequence (Q12809 whole entry): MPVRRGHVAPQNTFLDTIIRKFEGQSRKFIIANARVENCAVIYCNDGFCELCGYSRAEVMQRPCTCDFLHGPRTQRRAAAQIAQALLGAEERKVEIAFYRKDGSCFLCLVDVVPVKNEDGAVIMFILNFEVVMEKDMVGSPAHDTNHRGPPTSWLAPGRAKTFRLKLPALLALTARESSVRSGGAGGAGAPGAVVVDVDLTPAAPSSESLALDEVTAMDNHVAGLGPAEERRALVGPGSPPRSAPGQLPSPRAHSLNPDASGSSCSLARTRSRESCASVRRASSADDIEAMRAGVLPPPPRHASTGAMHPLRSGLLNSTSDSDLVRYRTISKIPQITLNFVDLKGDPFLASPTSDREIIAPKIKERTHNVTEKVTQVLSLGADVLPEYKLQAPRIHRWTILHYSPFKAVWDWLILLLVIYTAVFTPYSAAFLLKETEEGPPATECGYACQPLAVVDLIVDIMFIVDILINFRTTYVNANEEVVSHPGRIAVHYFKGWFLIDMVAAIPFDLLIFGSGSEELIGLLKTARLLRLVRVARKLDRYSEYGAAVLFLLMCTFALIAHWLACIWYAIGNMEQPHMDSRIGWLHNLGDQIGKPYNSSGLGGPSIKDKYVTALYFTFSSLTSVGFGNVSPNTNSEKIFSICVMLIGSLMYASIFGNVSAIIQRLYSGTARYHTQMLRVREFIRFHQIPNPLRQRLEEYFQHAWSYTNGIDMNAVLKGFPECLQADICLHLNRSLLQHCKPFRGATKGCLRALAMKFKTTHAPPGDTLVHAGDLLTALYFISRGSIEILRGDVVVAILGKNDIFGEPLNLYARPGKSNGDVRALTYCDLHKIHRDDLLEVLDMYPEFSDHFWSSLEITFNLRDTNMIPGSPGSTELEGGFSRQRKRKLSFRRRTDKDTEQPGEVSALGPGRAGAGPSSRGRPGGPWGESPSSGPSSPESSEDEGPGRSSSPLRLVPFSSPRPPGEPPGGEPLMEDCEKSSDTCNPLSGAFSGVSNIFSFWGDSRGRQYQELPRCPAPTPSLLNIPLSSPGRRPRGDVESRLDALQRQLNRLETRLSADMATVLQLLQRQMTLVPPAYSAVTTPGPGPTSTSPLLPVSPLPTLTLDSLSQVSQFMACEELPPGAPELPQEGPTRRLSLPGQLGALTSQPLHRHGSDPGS

SMILES: COc1ccc(N(Cc2cccnc2)C2CCN([C@H](C)CCNC(=O)c3c(C)cc(Cl)nc3C)CC2)cc1
- IC50 [1]: 18.9 nM
- CC50 [2]: > 37300 nM
- fraction unbound at 5 h, 1 µM [3]: 0.07
- Cmax [4]: 1330 nM
- Cmax [5]: 1570 nM
- AUC(0-inf) [6]: 4.83 µM·h
- AUC(0-inf) [7]: 2.73 µM·h
- clearance [8]: 23.3 mL/min/kg
- Vdss (Rattus norvegicus [9]): 50.5 L/kg
- Vd [10]: 26.7 L/kg
- t1/2 (Rattus norvegicus [11]): 8.6 h
- half-life [12]: 13.2 h
- bioavailability [13]: 23%
- bioavailability [14]: 37%

SMILES: COc1ccc(N(Cc2cnccc2C)C2CCN([C@H](C)CCNC(=O)c3c(C)ncnc3C)CC2)cc1
- IC50 [1]: 1830 nM
- CC50 [2]: > 38300 nM
- PPB (Plasma): 75%

SMILES: COc1ccc(N(Cc2cnccc2C)C2CCN([C@H](C)CCNC(=O)c3c(C)cc(Cl)nc3C)CC2)cc1
- IC50 [1]: 2.2 nM
- CC50 [2]: > 36400 nM
- fraction unbound at 5 h, 1 µM [3]: 0.08
- Cmax [4]: 3800 nM
- Cmax [5]: 580 nM
- AUC(0-inf) [6]: 22.7 µM·h
- AUC(0-inf) [7]: 1.33 µM·h
- clearance [15]: 46.7 mL/min/kg
- clearance [8]: 30 mL/min/kg
- Vd [16]: 40.5 L/kg
- Vd [10]: 34.7 L/kg
- half-life [17]: 10 h
- half-life [12]: 13.5 h
- bioavailability [13]: 67%
- bioavailability [14]: 21%
- inhibition [18]: inactive
- INH (Cytochrome P450 3A4): > 10 µM
- INH (Cytochrome P450 1A2): > 10 µM
- INH (Cytochrome P450 2C9): > 10 µM
- INH (Cytochrome P450 2C19): > 10 µM
- INH (Cytochrome P450 2D6): > 10 µM
- IC50 [19]: 250 nM
- inhibition [20]: inactive
- inhibition [21]: inactive
- inhibition [22]: inactive
- inhibition [23]: inactive
- inhibition [24]: inactive
- inhibition [25]: inactive
